Test results from paper PMC9894920, “Development of an improved and specific inhibitor of NADPH oxidase 2 to treat traumatic brain injury” (Redox Biology, 2023).
≈ marks a conversion by molar mass, not a printed value.

Tests used:
NOX4 = molecular target: T1, NOX4 (Homo sapiens, UniProt Q9NPH5); assay: Expi293 whole cell assay, NOX4 overexpression; assay type: cell-based; details: doses 100x higher than GSK2795039
T1 construct: expressed in transfected cells; host or cells: Expi293 (human embryonic kidney) cells, transient transfection, 48 hours
T1 sequence (Q9NPH5 1-578): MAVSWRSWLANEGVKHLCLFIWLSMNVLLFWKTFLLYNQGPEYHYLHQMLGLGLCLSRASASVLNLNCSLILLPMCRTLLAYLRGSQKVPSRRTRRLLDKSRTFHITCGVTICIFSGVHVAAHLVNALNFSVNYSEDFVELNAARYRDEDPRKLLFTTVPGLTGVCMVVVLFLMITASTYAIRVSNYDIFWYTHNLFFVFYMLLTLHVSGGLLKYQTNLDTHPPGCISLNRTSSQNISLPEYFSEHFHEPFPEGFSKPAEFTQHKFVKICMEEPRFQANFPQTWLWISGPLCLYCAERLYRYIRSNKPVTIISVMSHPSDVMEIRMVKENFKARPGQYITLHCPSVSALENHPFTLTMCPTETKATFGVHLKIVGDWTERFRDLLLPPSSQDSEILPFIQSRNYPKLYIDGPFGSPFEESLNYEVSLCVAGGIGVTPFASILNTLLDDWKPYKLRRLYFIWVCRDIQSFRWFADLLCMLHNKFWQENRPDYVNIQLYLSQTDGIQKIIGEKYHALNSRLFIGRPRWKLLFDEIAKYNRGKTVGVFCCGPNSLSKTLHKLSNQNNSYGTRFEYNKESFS
T1 sequence (P13498 2-195 partner limits assumed): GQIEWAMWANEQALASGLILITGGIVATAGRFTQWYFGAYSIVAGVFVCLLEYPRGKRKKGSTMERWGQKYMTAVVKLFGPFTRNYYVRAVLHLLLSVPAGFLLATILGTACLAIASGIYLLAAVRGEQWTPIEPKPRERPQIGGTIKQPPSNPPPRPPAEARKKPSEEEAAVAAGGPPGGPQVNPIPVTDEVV
Protocol: (§1) Given concerns about previous assays for specific NOX family members we here report the first use of the Expi293 Expression System (Thermo Scientific) to overexpress NOX1, 2, 3, 4, and 5 in excess of any endogenous NOX proteins present in these cells. Transfections were performed following the manufacturer's instructions using the plasmids for each NOX as described in Supplemental Table 2 except that the enhancer solution provided with the Expi293 system was not used because it promoted enzyme activation.
(§2) After the times indicated in Supplemental Table 2, cells were washed and 50,000 added per well of a white 96-well plate (Greiner) along with 50 μM Luminol and 2.5 U horseradish peroxidase/mL in a volume of 90 μl for NOX1, NOX2, and NOX5. Inhibitors or vehicle controls were added and cells were incubated for 20 min at 37 °C prior to activation with the indicated stimuli. For NOX3 and NOX4 (constitutively active), cells were incubated with inhibitor or vehicle control prior to the addition of luminol and HRP. Chemiluminescence was measured every 2 min for 1 s per well at 37 °C in a Varioscan Multimode reader. AUC data were analyzed using GraphPad Prism using non-linear regression analysis after expressing relative to control alone (maximum ROS production).

[1] = Aqueous kinetic solubility in PBS buffer; assay type: physicochemical; details: aqueous buffer, kinetic from dmso stock, read-out: Solubility
Protocol: The rat liver microsomal stability, parallel artificial membrane permeability assay (PAMPA), and aqueous kinetic solubility assay in phosphate-buffered saline (PBS) buffer were performed as described in the indicated references.

[2] = test system: NOX3 reconstituted with p47phox and p67phox; assay: NOX3 reconstituted with cytosolic phox proteins (p47phox and p67phox), data not shown; assay type: cell-based
From the text: Another experiment (data not shown) examined the potency of NCATS-SM7270 against NOX1 and NOX3 reconstituted with cytosolic phox proteins (p47phox and p67phox).

NOX5 = molecular target: T2, NOX5 (Homo sapiens, UniProt Q96PH1); assay: Expi293 whole cell assay, NOX5 overexpression; assay type: cell-based; details: highest dose about 100x the IC50 versus NOX2
T2 sequence (Q96PH1 1-719 isoform Q96PH1-4): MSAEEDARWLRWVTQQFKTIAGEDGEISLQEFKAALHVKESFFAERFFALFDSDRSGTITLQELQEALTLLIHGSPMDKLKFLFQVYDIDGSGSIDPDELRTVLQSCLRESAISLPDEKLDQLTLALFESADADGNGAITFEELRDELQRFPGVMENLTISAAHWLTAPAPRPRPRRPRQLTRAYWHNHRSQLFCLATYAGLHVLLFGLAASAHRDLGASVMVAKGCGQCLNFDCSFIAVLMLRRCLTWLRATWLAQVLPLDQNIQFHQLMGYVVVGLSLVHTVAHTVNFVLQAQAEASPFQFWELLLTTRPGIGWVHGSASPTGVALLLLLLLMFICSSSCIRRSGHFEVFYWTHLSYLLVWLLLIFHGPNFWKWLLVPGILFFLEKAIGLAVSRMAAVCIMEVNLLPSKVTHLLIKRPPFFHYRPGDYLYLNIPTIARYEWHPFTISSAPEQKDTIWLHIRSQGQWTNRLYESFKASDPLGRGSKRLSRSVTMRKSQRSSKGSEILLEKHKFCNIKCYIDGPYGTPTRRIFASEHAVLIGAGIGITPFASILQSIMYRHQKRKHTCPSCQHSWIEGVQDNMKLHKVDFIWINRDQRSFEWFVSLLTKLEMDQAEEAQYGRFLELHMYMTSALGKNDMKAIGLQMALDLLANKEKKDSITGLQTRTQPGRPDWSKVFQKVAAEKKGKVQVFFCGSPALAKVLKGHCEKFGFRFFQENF
Protocol: as §1, §2

Cn1ccc(S(=O)(=O)Nc2ccnc3c2c(-c2ccc4ccn(C)c4c2)cn3C2CC2)n1 [NCATS-SM7270, N-(1-cyclopropyl-3-(1-methyl-1H-indol-6-yl)-1H-pyrrolo [2,3-b]pyridin-4-yl)-1-methyl-1H-pyrazole-3-sulfonamide]
activity against NOX4 (NOX4): no detectable activity
solubility [1]: 19.6 µg/mL (≈ 43.9 µM)
dose needed to observe inhibition of NOX3 versus NOX2 [2]: ~10 fold
activity against NOX5 (NOX5): only marginal activity at the highest dose tested
